Source: patent publication US10214507B2, “Carbazole-containing amides, carbamates, and ureas as cryptochrome modulators” (Reset Therapeutics, Inc., priority 2014, dated 2019)
Like-named read-outs stand apart in the source and are kept apart here.

Tests used:
C57/Bl6J DIO mice [1] = assay: Increasing dosages of Compound 72 for 7 days in diet-induced obesity mouse model; format: in vivo
Text: (§1) Male C57/Bl6J DIO mice were obtained from The Jackson Laboratory (Sacramento, Calif.). […] Animals were accustomed to these conditions for at least 2 weeks before experimentation and used at approximately 24 weeks of age.
(§2) Significance was accepted when p<0.05.
Male C57/Bl6J DIO mice were obtained from The Jackson Laboratory (Sacramento, Calif.). […] Animals were accustomed to these conditions for at least 2 weeks before experimentation and used at approximately 26 weeks of age.

C57/Bl6J DIO mice [2] = assay: 7 day dosing in diet-induced obesity (DIO) mouse model; format: in vivo; conditions: 100 mg/kg PO 7 days
Text: as §1, §2

[3] = molecular target: FAD-binding domain of human CRY1 protein (hCRY1) (Homo sapiens (Human), UniProt Q16526); assay: Thermal shift binding assay (differential scanning fluorimetry); conditions: purified hCRY1 FADBD, Sypro-Orange
Sequence of FAD-binding domain of human CRY1 protein (hCRY1) (Q16526 1-494): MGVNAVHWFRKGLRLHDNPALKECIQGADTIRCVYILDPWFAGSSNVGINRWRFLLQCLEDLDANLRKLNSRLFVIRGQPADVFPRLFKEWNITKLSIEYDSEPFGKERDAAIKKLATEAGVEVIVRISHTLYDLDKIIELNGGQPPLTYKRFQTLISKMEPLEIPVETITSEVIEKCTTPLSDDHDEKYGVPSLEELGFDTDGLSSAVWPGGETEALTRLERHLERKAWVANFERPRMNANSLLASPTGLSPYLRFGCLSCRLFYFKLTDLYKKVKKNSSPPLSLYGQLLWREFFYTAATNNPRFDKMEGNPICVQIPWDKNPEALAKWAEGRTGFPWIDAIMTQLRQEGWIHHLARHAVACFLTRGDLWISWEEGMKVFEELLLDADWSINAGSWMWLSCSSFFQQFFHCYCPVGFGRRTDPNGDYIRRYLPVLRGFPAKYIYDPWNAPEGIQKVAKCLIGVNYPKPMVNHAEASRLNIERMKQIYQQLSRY
Procedure: Binding of compounds to the isolated FAD-binding domain of human CRY1 protein (hCRY1) was determined using a differential scanning fluorimetry (‘thermal shift’) assay (Pantoliano et al. (2001) J Biomol Screening 6, 429; Niesen et al. (2007) Nature Protocols 2, 2212). The FAD-binding domain of hCRY1 (amino acid residues 1-494) with a C-terminal Myc-DDK tag (FADBD), was produced by transient transfection of HEK293T cells (Catalog # CRL-3216, American Type Culture Collection) and purified by anti-FLAG affinity chromatography (Catalog # A2220, Sigma-Aldrich). FADBD (0.5 μg per well) was incubated with dilutions of compounds in DMSO (5% DMSO final concentration in reaction) in 17.5 μl Tris-buffered saline (TBS) for 10 minutes on ice, then 2.5 μl of 8× Sypro-Orange Dye (Life Technologies) was added to each well. Triplicate wells were assayed for each compound concentration. The melting temperatures were measured in an ABI7500 quantitative PCR instrument using the melt curve mode with a thermal profile of 2 minutes at 25° C., followed by a ramp rate of 1° C./minute up to 99° C. The melting temperature for each well was determined from the first derivative of the melt curve. The change in melting temperature (ΔTm) was obtained by subtraction of the melting temperature of the FADBD in 5% DMSO alone.

[4] = Pharmacokinetic analysis in ICR mice (plasma and liver, LC/MS/MS); format: in vivo, mouse; conditions: 50 mg/kg P.O.; for Cmax / Tmax / half-life / MRT last: male, ICR, po; for Cmax: 50 mg/kg; for half-life: read-out: Elimination T1/2 (converted); for MRT last: read-out: MRT (0-last, hr)
Procedure: Male ICR mice (weighing 30-40 g, Charles River Laboratories) were used for the experiment with n=3 mice for each experimental group (27 mice total for the study). […] Blood and liver tissue were collected at the following time points after administration: 15, 30, 60, 90 minutes, 3, 6, 12 and 24 hours. A control group of animals (TO) was also sampled. Animals were euthanized with CO2 and the blood collected from the heart using cardiac puncture, transferred to an EDTA tube, and then centrifuged at 5400 rpm for 5 minutes at 4° C. The resultant plasma was frozen using dry ice and then stored at −80° C. until ready for assay. Liver tissue was removed from each animal, 0.5 g was collected in an eppendorff, frozen and submitted for pharmacokinetic measurement. […] Raw data was analyzed using WinNonLin for PK parameters (Cmax, Tmax, elimination t^1/2, MRT (mean residence time), AUC (area under the curve)−(0-last and % extrapolated).

SMILES: O=C1NCCN1CC(O)Cn1c2ccc(F)cc2c2cc(F)ccc21 (stereo not shown) [Compound 72, 1-(3-(3,6-difluoro-9H-carbazol-9-yl)-2-hydroxypropyl)imidazolidin-2-one]
- fasting blood glucose (C57/Bl6J DIO mice [1]; 10 mg/kg QD PO 7 days): 206.8 ± 8.36 mg/dL
- glucose AUC from OGTT (C57/Bl6J DIO mice [1]; 10 mg/kg QD PO 7 days): 22563+/−1224 units
- fasting blood glucose (C57/Bl6J DIO mice [1]; 30 mg/kg QD PO 7 days): 197.5 ± 12.06 mg/dL
- glucose AUC from OGTT (C57/Bl6J DIO mice [1]; 30 mg/kg QD PO 7 days): 19033+/−1934 units
- fasting blood glucose (C57/Bl6J DIO mice [1]; 100 mg/kg QD PO 7 days): 176.3 ± 7.83 mg/dL
- glucose AUC from OGTT (C57/Bl6J DIO mice [1]; 100 mg/kg QD PO 7 days): 19502+/−2404 units
- HOMA-IR (C57/Bl6J DIO mice [2]): 32.54+/−3.37 units
- fasting blood glucose (C57/Bl6J DIO mice [2]): 177.1 ± 8.28 mg/dL
- glucose AUC calculated from the OGTT (C57/Bl6J DIO mice [2]): 17055+/−769.1
- plasma insulin at t=0 (C57/Bl6J DIO mice [2]): 3.12 ± 0.24 ng/mL
- plasma insulin at t=2 hr (C57/Bl6J DIO mice [2]): 2.88 ± 0.21 ng/mL
- change in melting temperature (ΔTm) [3]: dose-dependent increase
- Cmax ([4]; mouse, liver, mouse liver, read-out: Cmax): 7890 ng/mL
- Cmax ([4]; mouse, liver, mouse, unbound, read-out: Cmax UB (liver)): 288 ng/mL
- Cmax ([4]; mouse, plasma, mouse plasma, read-out: Cmax): 1150 ng/mL
- Cmax ([4]; mouse, plasma, mouse, read-out: Cmax (plasma)): 1150 ng/mL
- Cmax ([4]; mouse, plasma, mouse, unbound, read-out: Cmax UB (plasma)): 41.9 ng/mL
- Tmax ([4]; mouse liver): 0.25 to 0.5 h
- half-life ([4]; mouse liver): 3.4 h
- MRT last ([4]; mouse liver): 4.74 h
- Tmax ([4]; mouse plasma): 0.25 to 0.5 h
- half-life ([4]; mouse plasma): 3.13 h
- MRT last ([4]; mouse plasma): 5.3 h
- % AUC extrapolated ([4]; mouse liver): 0.85%
- AUC (total; ng · hr/mL) ([4]; mouse liver): 17961 ng·h/mL
- % AUC extrapolated ([4]; mouse plasma): 1.74%
- AUC (total; ng · hr/mL) ([4]; mouse plasma): 4236 ng·h/mL
- Cmax (liver) ([4]; mouse): 7890 ng/mL
- Total Liver AUC (0-last) ([4]; mouse): 17822
- Unbound Liver AUC (0-last) ([4]; mouse): 650.5
- Unbound Plasma AUC (0-last) ([4]; mouse): 151.5
